Experimental data from US11459312B2, “Sulphur substituted 3-oxo-2,3-dihydropyridazine-4-carboxamides” (Bayer Aktiengesellschaft, priority 2017, dated 2022).

What was measured:
[1] = biological target: T1, AHR (Homo sapiens, UniProt P35869); assay: In vitro assay 3: AHR-regulated CYP1A1 expression in human cell line (U937, quantitative PCR); format: cell-based; conditions: human monocytic U937 cells, CYP1A1 expression induced with 200 μM KA, 6 hours, qPCR; read-out: Assay 3: Hum CYP1A1 Antagonism IC50
T1 sequence (P35869 11-848): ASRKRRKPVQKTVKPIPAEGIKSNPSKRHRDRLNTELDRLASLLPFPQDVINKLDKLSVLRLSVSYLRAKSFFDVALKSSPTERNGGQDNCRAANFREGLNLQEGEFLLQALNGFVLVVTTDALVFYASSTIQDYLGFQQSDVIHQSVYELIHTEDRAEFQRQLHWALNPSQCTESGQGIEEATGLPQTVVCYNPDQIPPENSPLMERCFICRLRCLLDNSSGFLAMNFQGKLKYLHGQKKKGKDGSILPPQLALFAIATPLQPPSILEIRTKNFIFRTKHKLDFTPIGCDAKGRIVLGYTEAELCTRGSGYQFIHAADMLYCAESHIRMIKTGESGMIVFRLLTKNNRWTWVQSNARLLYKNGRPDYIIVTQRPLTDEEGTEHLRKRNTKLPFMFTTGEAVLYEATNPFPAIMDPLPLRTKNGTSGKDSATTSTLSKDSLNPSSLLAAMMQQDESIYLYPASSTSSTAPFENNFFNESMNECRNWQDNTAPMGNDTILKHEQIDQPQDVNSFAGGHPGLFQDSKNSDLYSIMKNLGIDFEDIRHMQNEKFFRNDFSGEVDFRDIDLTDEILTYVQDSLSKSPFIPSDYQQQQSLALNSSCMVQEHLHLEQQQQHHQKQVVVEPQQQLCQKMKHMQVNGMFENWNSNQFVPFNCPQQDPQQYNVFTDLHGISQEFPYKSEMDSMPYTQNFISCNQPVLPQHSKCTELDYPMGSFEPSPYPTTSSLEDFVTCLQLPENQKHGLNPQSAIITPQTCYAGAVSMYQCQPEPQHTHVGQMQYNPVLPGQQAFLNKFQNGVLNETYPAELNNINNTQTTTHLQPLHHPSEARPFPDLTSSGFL
Method: In Vitro Assay 3: AHR-Regulated CYP1A1 Expression in Human Cell Line
To assess the AHR inhibitory activity of the substances described in this application, the ability thereof to antagonize ligand-induced AHR gene regulation in a dose-dependent manner was quantified. For this purpose, quantitative PCR analysis was used to determine expression of the AHR-regulated gene CYP1A1 in a human monocytic U937 cell line upon stimulation with 200 μM KA in the presence and absence of AHR inhibitor. U937 cells were sown at a concentration of 2×10^5 cells/well in 100 μl of growth medium (RPMI 1640, 20% FCS) in 96-well microtitre plates. CYP1A1 expression was induced with 200 μM KA (positive control) in the presence or absence of the substances for 6 hours. Human U937 cells were typically incubated with eight different concentrations of the substances (1 nM, 3 nM, 10 nM, 30 nM, 100 nM, 300 nM, 1 μM and 3 μM) and analyzed in duplicate on the same microtitre plate. After stimulation, cells were lysed with Nucleic Acid Lysis Solution (#4305895, Applied Biosystems) and RNA was isolated using the 6100 Nucleic Acid Preparation Station (Applied Biosystems) and reverse-transcribed to cDNA using SuperScript VILO cDNA synthesis kit (#11754-250, Invitrogen). Unstimulated cells were used as the negative control. Taqman probes for human CYP1A1 (Hs01054797_g1) and human HPRT (Hs02800695_m1) were used to analyze fold expression of CYP1A1 of HPRT. Quantitation was performed on a Taqman SDS7900HT.

[2] = biological target: T1, AHR; assay: In vitro assay 1: AHR-luc transactivation assay, antagonism in human cell line (U87 glioblastoma cells, kynurenic acid prestimulated); format: cell-based; parameters: U87 glioblastoma cells (ATCC) endogenously expressing AHR; host or cells: U87 glioblastoma cells, stably transfected with DRE-firefly luciferase and renilla reporter constructs only; conditions: firefly luciferase DRE reporter, 150 μM kynurenic acid, 20 hours, read-out: Assay 1: AHR-luc Hum Antagonism IC50
Method: Transactivation Assay in Human Cell Line (In Vitro Assays 1 and 2)
Transactivation assays were carried out in U87 glioblastoma cells (ATCC) endogenously expressing AHR. In addition the cells were stably transfected with an AHR inducible firefly luciferase reporter gene construct that carried AHR-binding sites (DRE) in its promoter and a renilla reporter gene construct with constitutively active promoter. Kynurenic acid is an endogenous AHR activating ligand and was used to prestimulate test cells prior to testing the antagonistic properties of compounds.
In Vitro Assay 1: Antagonism in Human Cell Line
Cells in medium (tryptophan free RPMI, 1% FCS, 2 mM Glutamine) supplemented with 150 μM kynurenic acid were grown for 20 hours in absence (negative control) or presence of increasing concentrations of test compounds (typical dilutions: […], 0.25 nmol/L, 0.89 nmol/L; 3.1 nmol/L, 11 nmol/L, 38 nmol/L, 130 nmol/L, 470 nmol/L, 1.6 μmol/L, 5.7 μmol/L and 20 μmol/L in duplicates). As positive inhibition control cells supplemented with 150 μM kynurenic acid were incubated in presence of 5 μM Staurosporin. Normalization was done by positive and negative controls.
Firefly luciferase and Renilla activity was determined by the DualGlo Luciferase Assay System (Promega, #2920). Renilla activity was used to assess toxic effects of compounds.

**Q.** With `O=C(N[C@H]1CS(=O)(=O)C[C@H]1O)c1cc(-c2ccc(Cl)cc2)nn(-c2cccc(F)c2)c1=O` (racemic) [Example 55, 6-(4-Chlorophenyl)-2-(3-fluorophenyl)-N-[(cis)-4-hydroxy-1,1-dioxidotetrahydrothiophen-3-yl]-3-oxo-2,3-dihydropyridazine-4-carboxamide] as the molecule, how does the IC50 [1] read?
**A.** 27 nM

**Q.** And the IC50 [2]?
**A.** 26.5 nM

**Q.** For `O=C(N[C@@H]1CS(=O)(=O)C[C@@H]1O)c1cc(-c2ccc(C(F)(F)F)cc2)nn(-c2cccc(F)c2)c1=O` (relative stereo) [Example 13, 2-(3-fluorophenyl)-N-[(cis)-4-hydroxy-1,1-dioxidotetrahydro-thiophen-3-yl]-3-oxo-6-[4-(trifluoromethyl)phenyl]-2,3-dihydropyridazine-4-carboxamide], which IC50 [1] is on record?
**A.** 18.6 nM

**Q.** And the IC50 [2]?
**A.** 5.65 nM

**Q.** `O=C(N[C@@H]1CS(=O)(=O)C[C@@H]1O)c1cc(-c2ccc(C(F)(F)F)cc2)nn(-c2cccc(F)c2)c1=O` (single isomer, unassigned) [Example 15, (−)-2-(3-fluorophenyl)-N-[(cis)-4-hydroxy-1,1-dioxidotetrahydro-thiophen-3-yl]-3-oxo-6-[4-(trifluoromethyl)phenyl]-2,3-dihydropyridazine-4-carboxamide] was tested. Which IC50 [1] did it give?
**A.** 36.9 nM

**Q.** What about the IC50 [2] of the same molecule?
**A.** 17.7 nM

**Q.** Which results are given for `C[C@@H](C[S+](C)[O-])NC(=O)c1cc(-c2ccc(C(F)(F)F)cc2)nn(-c2cnn(C)c2)c1=O` (single isomer, unassigned) [Example 24]?
**A.** IC50 [1]: 7.56 nM; IC50 [2]: 7.54 nM

**Q.** What does the source list for `N=S1(=O)C[C@H](O)[C@H](NC(=O)c2cc(-c3ccc(Cl)cc3)nn(-c3cccc(F)c3)c2=O)C1` (single isomer, unassigned) [Example 45, 6-(4-chlorophenyl)-2-(3-fluorophenyl)-N-[(cis)-4-hydroxy-1-imino-1-oxidotetrahydro-1H-1lambda4-thiophen-3-yl]-3-oxo-2,3-dihydropyridazine-4-carboxamide]?
**A.** IC50 [1]: 756 nM; IC50 [2]: 56.9 nM

**Q.** For `O=C(N[C@H]1CS(=O)(=O)C[C@H]1O)c1cc(-c2ccc(Cl)cc2)nn(-c2cccc(F)c2)c1=O` (single isomer, unassigned) [Example 57, 6-(4-Chlorophenyl)-2-(3-fluorophenyl)-N-[(cis)-4-hydroxy-1,1-dioxidotetrahydrothiophen-3-yl]-3-oxo-2,3-di hydropyridazine-4-carboxamide], which IC50 [1] is on record?
**A.** 17.1 nM

**Q.** And the IC50 [2]?
**A.** 5.77 nM

**Q.** With `C[C@@H](CS(C)(=O)=NC(=O)C(F)(F)F)NC(=O)c1cc(-c2ccc(C(F)(F)F)cc2)nn(-c2cnn(C)c2)c1=O` (stereo partly drawn) [Example 41, 2-(1-Methyl-1H-pyrazol-4-yl)-N-{(2S)-1-[S-methyl-N-(trifluoroacetyl)sulfonimidoyl]propan-2-yl}-3-oxo-6-[4-(trifluoromethyl)phenyl]-2,3-dihydropyridazine-4-carboxamide] as the molecule, how does the IC50 [2] read?
**A.** 39.2 nM

**Q.** Which IC50 [2] does the source give for `N=S1(=O)C[C@H](O)[C@H](NC(=O)c2cc(-c3ccc(Cl)cc3)nn(-c3cccc(F)c3)c2=O)C1` (stereo partly drawn) [Example 42, 6-(4-chlorophenyl)-2-(3-fluorophenyl)-N-[(cis)-4-hydroxy-1-imino-1-oxidotetrahydro-1H-1lambda4-thiophen-3-yl]-3-oxo-2,3-dihydropyridazine-4-carboxamide] here?
**A.** 34.9 nM

**Q.** Which IC50 [2] does the source give for `N=S1(=O)C[C@H](O)[C@H](NC(=O)c2cc(-c3ccc(Cl)cc3)nn(-c3cccc(F)c3)c2=O)C1` (stereo partly drawn) [Example 44, 6-(4-chlorophenyl)-2-(3-fluorophenyl)-N-[(cis)-4-hydroxy-1-imino-1-oxidotetrahydro-1H-1lambda4-thiophen-3-yl]-3-oxo-2,3-dihydropyridazine-4-carboxamide] here?
**A.** 99.3 nM

**Q.** Which IC50 [2] does the source give for `Cn1cc(-n2nc(-c3ccc(C(F)(F)F)cc3)cc(C(=O)N[C@@H]3CS(=N)(=O)C[C@@H]3O)c2=O)cn1` (stereo partly drawn) [Example 47, N-[(cis)-4-hydroxy-1-imino-1-oxidotetrahydro-1H-1lambda4-thiophen-3-yl]-2-(1-methyl-1H-pyrazol-4-yl)-3-oxo-6-[4-(trifluoromethyl)phenyl]-2,3-dihydropyridazine-4-carboxamide] here?
**A.** 158 nM

**Q.** With `CSC[C@H](C)NC(=O)c1cc(-c2ccc(Cl)cc2)nn(-c2cnn(C)c2)c1=O` [Example 48, 6-(4-Chlorophenyl)-2-(1-methyl-1H-pyrazol-4-yl)-N-[(2S)-1-(methylsulfanyl)propan-2-yl]-3-oxo-2,3-dihydropyridazine-4-carboxamide] as the molecule, how does the IC50 [1] read?
**A.** 29.9 nM

**Q.** And the IC50 [2]?
**A.** 15.5 nM

**Q.** With `C[C@@H](C[S+](C)[O-])NC(=O)c1cc(-c2ccc(Cl)cc2)nn(-c2cnn(C)c2)c1=O` (stereo partly drawn) [Example 49, 6-(4-Chlorophenyl)-2-(1-methyl-1H-pyrazol-4-yl)-N-[(2S)-1-(methylsulfinyl)propan-2-yl]-3-oxo-2,3-dihydropyridazine-4-carboxamide] as the molecule, how does the IC50 [2] read?
**A.** 26.4 nM

**Q.** Which IC50 [1] does the source give for `C[C@@H](CS(C)(=O)=O)NC(=O)c1cc(-c2ccc(Cl)cc2)nn(-c2cnn(C)c2)c1=O` [Example 50, 6-(4-Chlorophenyl)-2-(1-methyl-1H-pyrazol-4-yl)-N-[(2S)-1-(methylsulfonyl)propan-2-yl]-3-oxo-2,3-di hydropyridazine-4-carboxamide] here?
**A.** 43.7 nM

**Q.** And the IC50 [2]?
**A.** 30.5 nM

**Q.** Which IC50 [2] does the source give for `C[S+]([O-])CCNC(=O)c1cc(-c2ccc(Cl)cc2)nn(-c2cccc(F)c2)c1=O` (stereo not drawn) [Example 51, 6-(4-Chlorophenyl)-2-(3-fluorophenyl)-N-[2-(methylsulfinyl)ethyl]-3-oxo-2,3-dihydropyridazine-4-carboxamide] here?
**A.** 393 nM

**Q.** With `CS(=N)(=O)CCNC(=O)c1cc(-c2ccc(Cl)cc2)nn(-c2cccc(F)c2)c1=O` (stereo not drawn) [Example 52, 6-(4-Chlorophenyl)-2-(3-fluorophenyl)-N-[2-(S-methylsulfonimidoyl)ethyl]-3-oxo-2,3-dihydropyridazine-4-carboxamide] as the molecule, how does the IC50 [2] read?
**A.** 700 nM

**Q.** How did the IC50 [2] turn out when `CS(=O)(=O)CCNC(=O)c1cc(-c2ccc(Cl)cc2)nn(-c2cccc(F)c2)c1=O` [Example 59, 6-(4-Chlorophenyl)-2-(3-fluorophenyl)-N-[2-(methylsulfonyl)ethyl]-3-oxo-2,3-dihydropyridazine-4-carboxamide] was run?
**A.** 326 nM
